Data as given in patent publication US11571398B1, “Compositions comprising ephedrine or an ephedrine salt and methods of making and using same” (Nexus Pharmaceuticals, Inc., priority 2019, dated 2023).
Where two headings read alike, the source gives them in different places.

Legend:
[1] = HPLC-UV-CAD (QTOF LC-MS) extractables of stoppers: 50/50 IPA/Water extract; format: physicochemical; settings: stopper extract, reflux 12 hours, relative quantitation against standard (12-HDA, Irgacure 184 or Oleamide), average of duplicate injections
[2] = HPLC-UV-CAD (QTOF LC-MS) extractables of stoppers: pH 9.4 extract; format: physicochemical; settings: stopper extract, water pH 9.4, reflux 20 hours; relative quantitation against standard (12-HDA, Irgacure 184 or Oleamide); average of duplicate injections
[3] = for ICP-MS Results (ppb) Glass vials (2% HNO3): glass vials extracted in 2% HNO3, 60° C.; for ICP-MS Results (ppb) Glass vials (2% HNO3) / ICP-MS Results (ppb) Stoppers (2% HNO3): ~24 h; for ICP-MS Results (ppb) Stoppers (2% HNO3): stoppers extracted in 2% HNO3, 60° C.
[4] = 2.5 ppb = lowest calibration concentration
[5] = stoppers, refluxed aqueous solution pH 3.4, 2.5 ppb = lowest calibration concentration

## C1COCCOCCSSCCOCCO1
[1]
  Est. Conc. of extractable (possible identification), HPLC-UV-CAD: <0.5 µg/mL

## Cc1cc(C(C)(C)C)cc(S(=O)(=O)O)c1 [5-(tert-Butyl)-3-toluenesulfonic acid]
[1]
  Est. Conc. of extractable (possible identification), HPLC-UV-CAD: 0.25 µg/mL

## CCCCOCCOCCOC(C)=O [Butyldiglycol acetate]
[1]
  Est. Conc. of extractable (possible identification), HPLC-UV-CAD: <0.5 µg/mL

## O=S(O)S(=O)O [Dithionous acid]
[2]
  Est. Conc. of extractable (possible identification), HPLC-UV-CAD: 3.52 µg/mL

## CCCCCCCCCCCCOS(C)(=O)=O [Dodecyl methanesulfonate]
[1]
  Est. Conc. of extractable (possible identification), HPLC-UV-CAD: 0.65 µg/mL

## CCCCCCCCCCCC(=O)NCCC[N+](C)(C)CC(=O)[O-] [Lauramidopropyl betaine]
[1]
  Est. Conc. of extractable (possible identification), HPLC-UV-CAD: <0.5 µg/mL

## CCCCCCCCCCCC(=O)O [Lauric acid]
[1]
  Est. Conc. of extractable (possible identification), HPLC-UV-CAD: <0.5 µg/mL

## CCCC(=O)C(O)c1ccccc1 (stereo not shown) [Lot 1-Hydroxy-1-phenyl-2-pentanone]
[2]
  Est. Conc. of extractable (possible identification), HPLC-UV-CAD: 0.10 µg/mL
[1]
  Est. Conc. of extractable (possible identification), HPLC-UV-CAD: 30.47 µg/mL

## CCCCCCCCCCCCCC(=O)O [Myristic acid]
[1]
  Est. Conc. of extractable (possible identification), HPLC-UV-CAD: <0.5 µg/mL

## CCCCCCCC/C=C\CCCCCCCC(N)=O [Oleamide]
[1]
  Est. Conc. of extractable (possible identification), HPLC-UV-CAD: <0.5 µg/mL

## CCCCCCCCCCCCCCCC(N)=O [Palmitamide]
[1]
  Est. Conc. of extractable (possible identification), HPLC-UV-CAD: <0.5 µg/mL

## CCCCCCCCCCCCCCCC(=O)O [Palmitic acid]
[1]
  Est. Conc. of extractable (possible identification), HPLC-UV-CAD: 10.74 µg/mL

## CCCCCC[C@@H](O)C/C=C\CCCCCCCC(=O)O [Ricinoleic acid]
[1]
  Est. Conc. of extractable (possible identification), HPLC-UV-CAD: <0.5 µg/mL

## CCCCCCCCCCCCCCCCCC(N)=O [Stearamide]
[1]
  Est. Conc. of extractable (possible identification), HPLC-UV-CAD: <0.5 µg/mL

## OCCOCCOCCO [Triethylene glycol]
[2]
  Est. Conc. of extractable (possible identification), HPLC-UV-CAD: <0.5 µg/mL
[1]
  Est. Conc. of extractable (possible identification), HPLC-UV-CAD: <0.5 µg/mL

## Antimony
[3]; [4]
  ICP-MS Results (ppb) Glass vials (2% HNO3): <2.5 ppb
[3]; pH 3.4
  ICP-MS Results (ppb) Stoppers (Reflux pH 3.4): <2.5 ppb

## Arsenic
[3]; [4]
  ICP-MS Results (ppb) Glass vials (2% HNO3): <2.5 ppb
  ICP-MS Results (ppb) Stoppers (2% HNO3): <2.5 ppb
[3]; [5]
  ICP-MS Results (ppb) Stoppers (Reflux pH 3.4): <2.5 ppb

## Cadmium
[3]; [4]
  ICP-MS Results (ppb) Glass vials (2% HNO3): <2.5 ppb
  ICP-MS Results (ppb) Stoppers (2% HNO3): <2.5 ppb
[3]; [5]
  ICP-MS Results (ppb) Stoppers (Reflux pH 3.4): <2.5 ppb

## Cobalt
[3]; [4]
  ICP-MS Results (ppb) Glass vials (2% HNO3): 2.6 ppb
[3]; pH 3.4
  ICP-MS Results (ppb) Stoppers (Reflux pH 3.4): <2.5 ppb

## Copper
[3]; [4]
  ICP-MS Results (ppb) Glass vials (2% HNO3): 3.7 ppb
[3]; pH 3.4
  ICP-MS Results (ppb) Stoppers (Reflux pH 3.4): <2.5 ppb

## Laureth-3
[1]
  Est. Conc. of extractable (possible identification), HPLC-UV-CAD: <0.5 µg/mL

## Laureth-4
[1]
  Est. Conc. of extractable (possible identification), HPLC-UV-CAD: <0.5 µg/mL

## Laureth-9
[1]
  Est. Conc. of extractable (possible identification), HPLC-UV-CAD: <0.5 µg/mL

## Lead
[3]; [4]
  ICP-MS Results (ppb) Glass vials (2% HNO3): <2.5 ppb
  ICP-MS Results (ppb) Stoppers (2% HNO3): <2.5 ppb
[3]; [5]
  ICP-MS Results (ppb) Stoppers (Reflux pH 3.4): <2.5 ppb

## Lithium
[3]; [4]
  ICP-MS Results (ppb) Glass vials (2% HNO3): 2.6 ppb
[3]; pH 3.4
  ICP-MS Results (ppb) Stoppers (Reflux pH 3.4): <2.5 ppb
